Values joined by “and” are separate entries in the source; they are usually repeats but may differ in a detail not shown here. Equal values may be shown once. “Also recorded” adds a separate entry of the source.
Experiments:
Japanese mustard spinach [1] = test: Verification experiment 1: high temperature stress, hydroponics (first time); assay type: in vivo; conditions: for effect as agent compared with zerumbone: high temperature stress, hydroponics
Method: In order to confirm that the above substances have an efficacy such as alleviation of the various stresses on a plant or promotion of plant growth, some verification experiments were conducted. In each of the verification experiments, solutions of the above substances were used. A concentration thereof was in a range from 0.01 ppm to 10 ppm, in order to exert a sufficient efficacy on a plant. This concentration was appropriately adjusted for each verification experiment. For comparison, similar verification experiments using sanguinarine were conducted. In such a verification experiment for an identical purpose to the above, a concentration of sanguinarine was set to be identical to those of the above substances. A verification experiment for high temperature stress was conducted by use of Japanese mustard spinach. The experiment was conducted in the following procedures. […] Note that the agent used was zerumbone.

Japanese mustard spinach [2] = test: Verification experiment 2: high temperature and low sunshine stress, hydroponics (second time-B)
Japanese mustard spinach [3] = test: Verification experiment 2: high temperature stress, hydroponics, plenty of sunlight (second time-A)
racomitrium moss [4] = test: Verification experiment 17: high temperature stress, Bryophyta, TTC test; assay type: in vivo; conditions: samples immersed in tap water of 45° C. for 18 hours
Method: As a Bryophyta, racomitrium moss was used, which is a Bryophyta widely used for greening a park, a rooftop, and a garden. Verification experiments for various stresses were conducted thereon. The experiments were conducted in the following procedures. […] Meanwhile, the control sample was sprayed only with water. After the spraying, the racomitrium mosses were cultivated at 25° C. for one day. Then, the samples were subjected to various stresses. Thus, cell activities of the samples were determined by TTC test. […] On such samples, TTC test was conducted.

cucumber [5] = test: Verification experiment 8: low temperature stress, TTC test; assay type: in vivo; conditions: for TTC test dyeing of leaves (cell activity): remaining plants cultivated two days under fluorescent lamp at 4° C.
cucumber [6] = test: Verification experiment 9: organic acid stress, TTC test; assay type: in vivo; conditions: cut leaves immersed in 0.4% acetic acid solution for two hours
racomitrium moss [7] = test: Verification experiment 19: ammonia stress, Bryophyta, TTC test; assay type: in vivo; conditions: samples immersed in 1.0% ammonia solution for 48 hours
leaf lettuce = test: Verification experiment 13: hydroponics test on leaf lettuce in vinyl greenhouse in summer; assay type: in vivo
cucumber [8] = test: Verification experiment 12: salt stress, TTC test; assay type: in vivo; conditions: cut leaves immersed in 1.0% saline water for 24 hours
cucumber [9] = test: Verification experiment 6: dry stress; assay type: in vivo; conditions: for Weight of each seedling: 3 ml agent added immediately after germination, 18 days cultivation, soil surface kept dry, samples No. 1-9; for Average: average seedling weight after 18 days dry stress; for Weight comparison (%): control = 100.0
Method: By use of cucumber, a resistance to dry stress was investigated. 3 ml of Zerumbone was added to cucumber seedlings immediately after germination. The cucumber seedlings were cultivated for 18 days. Meanwhile, another cucumber seedlings were cultivated for 18 days without Zerumbone added thereto. Throughout the cultivation period, a minimum amount of water was given and watering was conducted a minimum number of times so that the soil surface was always kept dry. […] A weight of each of the seedlings was measured. […] Note that, except for the agent, the cultivation conditions used were identical to those of the case where zerumbone was used.

autumn fern [10] = test: Verification experiment 14: high temperature stress, Pteridophyta, TTC test; assay type: in vivo; conditions: cut leaves immersed in tap water of 45° C. for 18 hours
Method: As a Pteridophyta, autumn fern was used, which is a representative Pteridophyta often found in, […] bright forest. Verification experiments for various stresses were conducted thereon. The experiments were conducted in the following procedures. […] Meanwhile, the leaf surfaces of the control sample were sprayed only with water. After the spraying onto the leaf surfaces, the autumn fern seedlings were cultivated at 25° C. for one day. The leaves were cut in a suitable size, and were then subjected to various stresses. Then, cell activities of the samples were determined by TTC test. The leaves that were cut in the suitable size were immersed in tap water of 45° C. for 18 hours. On such leaves, TTC test was conducted.

cucumber [11] = test: Verification experiment 11: ultraviolet ray stress, TTC test; assay type: in vivo; conditions: cut leaves irradiated with ultraviolet ray for 24 hours
cucumber [12] = test: Verification experiment 10: ammonia stress, TTC test; assay type: in vivo; conditions: cut leaves immersed in 1.0% ammonia solution for three hours
racomitrium moss [13] = test: Verification experiment 18: organic acid stress, Bryophyta, TTC test; assay type: in vivo; conditions: samples immersed in 0.4% acetic acid solution for three hours
autumn fern [14] = test: Verification experiment 15: organic acid stress, Pteridophyta, TTC test; assay type: in vivo; conditions: cut leaves immersed in 0.4% acetic acid solution for three hours
autumn fern [15] = test: Verification experiment 16: ammonia stress, Pteridophyta, TTC test; assay type: in vivo; conditions: cut leaves immersed in 1.0% ammonia solution for 48 hours
[16] = cut leaves left two days in dark place at 0° C.
[17] = cut leaves left two days in dark place at −10° C.
[18] = leaf lettuce, summer greenhouse hydroponics

Compound | effect as agent compared with zerumbone (Japanese mustard spinach [1]) | TTC test dyeing (cell activity) (racomitrium moss [4]) | TTC test dyeing (cell activity) (cucumber [5]; [16]) | TTC test dyeing (cell activity) (cucumber [5]; [17]) | TTC test dyeing of leaves (cell activity) (cucumber [5]) | cells having an activity (TTC test) (cucumber [6]) | TTC test dyeing (cell activity) (racomitrium moss [7]) | cells alive (TTC test) (cucumber [8]) | Weight of each seedling (cucumber [9]) | Average (cucumber [9]) | Weight comparison (%) (cucumber [9]) | TTC test dyeing (cell activity) (autumn fern [10]) | cells having an activity (TTC test) (cucumber [11]) | cells having an activity (TTC test) (cucumber [12]) | TTC test dyeing (cell activity) (racomitrium moss [13]) | TTC test dyeing (cell activity) (autumn fern [14]) | TTC test dyeing (cell activity) (autumn fern [15]) | further results
C[n+]1cc2c3c(ccc2c2ccc4cc5c(cc4c21)OCO5)OCO3 [Sanguinarine, sanguinarine, reference compound] | – | – | – | – | – | – | – | – | – | – | – | – | – | – | – | – | – | Average (Japanese mustard spinach [1]; average weight of 10 samples, first time): 1.574 g; weights greater than those of the control samples (Japanese mustard spinach [1]; average weights compared, first time): approximately 3%; Growth ratio (%) (Japanese mustard spinach [1]; control = 100.0, first time): 103.2%; Weight of 10 samples (Japanese mustard spinach [1]; dry weight of 10 seedlings, leaf spray, nine days culture, maximum temperature 30-43 °C, plenty of sunlight, first time): 1.554 g and 1.538 g and 1.594 g and 1.610 g; growth better than the growth of the control samples (Japanese mustard spinach [2]; Table 3 experiment, almost no sunlight): approximately 17%; Growth ratio (%) (Japanese mustard spinach [2]; control = 100.0, second time-B): 116.7%; Weight of 10 samples (Japanese mustard spinach [2]; dry weight of 10 seedlings, nine days, 30-43 °C, almost no sunlight, second time-B): 1.802 g and 1.873 g; Average (Japanese mustard spinach [2]; second time-B): 1.838 g; weights greater than those of the control samples (Japanese mustard spinach [3]; Table 2 experiment): approximately 11%; Growth ratio (%) (Japanese mustard spinach [3]; control = 100.0, second time-A): 110.7%; Weight of 10 samples (Japanese mustard spinach [3]; dry weight of 10 seedlings, nine days, 30-43 °C, plenty of sunlight, second time-A): 1.996 g and 2.027 g and 2.156 g and 2.179 g; Average (Japanese mustard spinach [3]; second time-A): 2.090 g
C/C1=C\CC/C(C)=C/CC(C)(C)/C=C/C1 [α-humulene] | effects almost similar to that of zerumbone | dyed slightly | dyed deeply | dyed slightly | dyed deeply except for their peripheries | approximately half of the cells | dyed slightly | most of the cells | 2.69 g and 2.99 g and 3.21 g and 3.07 g and 3.02 g and 2.76 g and 2.65 g and 3.03 g | 2.90 g | 108.5% | dyed slightly | approximately half of the cells | a part of the cells | dyed slightly | dyed slightly | dyed slightly | Disease resistance: Powdery mildew (leaf lettuce; in vivo): Not occurred; Disease resistance: Root rot (leaf lettuce; in vivo): Not occurred; Physiological disorder (quality): Heterophyll (leaf lettuce; in vivo): Not occurred; Physiological disorder (quality): Root spread condition (leaf lettuce; in vivo): far better than in the sanguinarine test section; also recorded: Generally; Physiological disorder (quality): Taste (leaf lettuce; in vivo): No bitterness; Physiological disorder (quality): Tip burn (dead fringes of leaf) (leaf lettuce; in vivo): Not occurred; Physiological disorder (quality): Unproductive growth (leaf lettuce; in vivo): Not occurred; occurrence of a disease (overall) (leaf lettuce; in vivo): occurrence of a disease was not observed; physiological disorder (overall) (leaf lettuce; in vivo): no physiological disorder occurred
C=C1CC/C=C(\C)CC[C@@H]2[C@@H]1CC2(C)C [β-caryophyllene] | effects almost similar to that of zerumbone | dyed slightly | dyed deeply | dyed slightly | dyed deeply except for their peripheries | approximately half of the cells | dyed slightly | most of the cells | 2.89 g and 3.15 g and 3.01 g and 3.13 g and 2.91 g and 3.53 g and 3.11 g and 3.02 g | 3.10 g | 108.8% | dyed slightly | approximately half of the cells | a part of the cells | dyed slightly | dyed slightly | dyed slightly | Growing speed: Harvest timing (leaf lettuce; day on which harvest size reached 150 g to 180 g): 33rd day after day after germination; Disease resistance: Powdery mildew (leaf lettuce; [18]): Not occurred; Disease resistance: Root rot (leaf lettuce; [18]): Not occurred; Physiological disorder (quality): Heterophyll (leaf lettuce; [18]): Not occurred; Physiological disorder (quality): Root spread condition (leaf lettuce; [18]): far better than in the sanguinarine test section; also recorded: Very good; Physiological disorder (quality): Taste (leaf lettuce; [18]): No bitterness; Physiological disorder (quality): Tip burn (dead fringes of leaf) (leaf lettuce; [18]): Not occurred; Physiological disorder (quality): Unproductive growth (leaf lettuce; [18]): Not occurred; occurrence of a disease (overall) (leaf lettuce; [18]): occurrence of a disease was not observed; physiological disorder (overall) (leaf lettuce; [18]): no physiological disorder occurred
